Experimental data from ChEMBL document CHEMBL4665675 (J Med Chem, 2020).
Where a SMILES comes first, the peptide text is derived from it. [ ]: non-standard residue; d: D form. The star is where a group is joined. Cholesteryloxycarbonyl = CC(C)CCC[C@@H](C)[C@H]1CC[C@H]2[C@@H]3CC=C4C[C@@H](OC(=O)*)CC[C@]4(C)[C@H]3CC[C@]12C; PEG3 = NCCOCCOCCOCCC(=O)O; Aib = CC(C)(N)C(=O)O; βAla = NCCC(=O)O

Legend:
[1] = Inhibition of porcine tubulin polymerization by UV/visible spectrophotometry; set-up: species or system Sus scrofa
NALM-6 [2] = assay: Antiproliferative activity against human Nalm-6 cells incubated for 24 hrs by cell counting based method; format: functional; details: NALM-6, 24 h
BJAB [3] = assay: Antiproliferative activity against human BJAB cells incubated for 24 hrs by cell counting based method; format: functional
Tubulin = assay: Inhibition of tubulin polymerization (unknown origin); format: protein-complex assay, Homo sapiens
BXPC-3 = assay: Cytotoxicity against human BxPC-3 cells incubated for 48 hrs by MTT assay; format: functional, cell-based; details: BXPC-3, 48 h
A549 [4] = assay: Cytotoxicity against human A549 cells incubated for 48 hrs by MTT assay; format: functional, cell-based; details: A549, 48 h
PC-3 = assay: Cytotoxicity against human PC-3 cells incubated for 48 hrs by MTT assay; format: functional, cell-based; details: PC-3, 48 h
[5] = Antiproliferative activity against human KB-8511 cells incubated for 96 hrs by spectrophotometric method; format: functional, cell-based; details: KB-ChR-8-5-11, 96 h
[6] = Cytotoxicity against human HGF-1 cells incubated for 48 hrs by MTT assay; format: cell-based; details: HGF1, 48 h
HT-29 = assay: Cytotoxicity against human HT-29 cells incubated for 48 hrs by MTT assay; format: functional, cell-based; details: HT-29, 48 h
HEK293 = assay: Cytotoxicity against HEK293 cells incubated for 48 hrs by MTT assay; format: cell-based; details: Homo sapiens, HEK293, 48 h
P388 [7] = assay: Antiproliferative activity against mouse P388 cells incubated for 72 hrs by Coulter counter method; format: functional, cell-based; details: P388, 72 h
[8] = Cytotoxicity against human BHP-1 cells incubated for 48 hrs by MTT assay; format: cell-based; details: BHP1, 48 h
MIA PaCa-2 = assay: Cytotoxicity against human Mia PaCa-2 cells incubated for 48 hrs by MTT assay; format: functional, cell-based; details: MIA PaCa-2, 48 h
HeLa = assay: Cytotoxicity against human HeLa cells after 24 to 72 hrs by Cell Titer Blue assay; format: cell-based
KB 3-1 = assay: Antiproliferative activity against human KB-31 cells incubated for 96 hrs by spectrophotometric method; format: functional, cell-based; details: KB 3-1, 96 h
NALM-6 [9] = assay: Induction of apoptosis in human Nalm-6 cells at 5 nM incubated for 72 hrs by flow cytometric method relative to control; format: functional
MCF7 = assay: Induction of apoptosis in human MCF7 cells at 3 nM incubated for 72 hrs by flow cytometric method; format: functional
BJAB [10] = assay: Induction of apoptosis in human BJAB cells at 5 nM incubated for 72 hrs by flow cytometric method relative to control; format: functional
DU-145 = assay: Antiproliferative activity against human DU145 cells incubated for 72 hrs by WST assay; format: functional, cell-based; details: DU-145, 72 h
[11] = Inhibition of calf brain tubulin by turbidimetry; set-up: species or system Bos taurus
PANC-1 [12] = assay: Antiproliferative activity against human PANC1 cells incubated for 72 hrs by WST assay; format: functional, cell-based; details: PANC-1, 72 h
HaCaT = assay: Cytotoxicity against human HaCaT cells incubated for 72 hrs by MTT assay; format: functional, cell-based
PANC-1 [13] = assay: Cytotoxicity against human PANC1 cells incubated for 72 hrs by MTT assay; format: functional, cell-based; details: PANC-1, 72 h
SK-BR-3 [14] = assay: Cytotoxicity against human SK-BR-3 cells assessed as reduction in cell viability incubated for 72 hrs in presence of trastuzumab-iCME by flow cytometry; format: functional, cell-based; details: SK-BR-3, 72 h
SK-BR-3 [15] = assay: Cytotoxicity against human SK-BR-3 cells assessed as reduction in cell viability incubated for 72 hrs by flow cytometry; format: functional, cell-based; details: SK-BR-3, 72 h
[16] = Inhibition of DNA topoisomerase2 (unknown origin); set-up: species or system Homo sapiens
HCT-116 [17] = assay: Cytotoxicity against human HCT-116 cells by cell titer-glow assay; format: functional, cell-based
HCT-116 [18] = assay: Cytotoxicity against human HCT-116 cells by calcein AM reagent based fluorescence method; format: functional, cell-based
SF-268 [19] = assay: Cytotoxicity against human SF-268 cells by cell titer-glow assay; format: functional, cell-based
SF-268 [20] = assay: Cytotoxicity against human SF-268 cells by calcein AM reagent based fluorescence method; format: functional, cell-based
BJAB [21] = assay: Cytotoxicity against human BJAB cells; format: functional, cell-based
A549 [22] = assay: Antiproliferative activity against human A549 cells incubated for 36 hrs; format: functional, cell-based; details: A549, 36 h
KB = assay: Antiproliferative activity against human KB cells incubated for 36 hrs; format: functional, cell-based
HCT-8 = assay: Antiproliferative activity against human HCT-8 cells incubated for 36 hrs; format: functional, cell-based; details: HCT-8, 36 h
TE-671 = assay: Antiproliferative activity against human TE-671 cells incubated for 36 hrs; format: functional, cell-based; details: TE-671, 36 h
[23] = Inhibition of bovine brain tubulin polymerization preincubated for 15 mins followed by GTP addition; set-up: species or system Bos taurus
P388 [24] = assay: Antiproliferative activity against mouse P388 cells incubated for 36 hrs; format: functional, cell-based; details: P388, 36 h
RPMI-7951 = assay: Antiproliferative activity against human RPMI-7951 cells incubated for 36 hrs; format: functional, cell-based; details: RPMI-7951, 36 h

COc1ccc2c(c1O)COCc1cc(OC)c(OC)c(OC)c1-2
IC50 [1]: 1000 nM

COc1cc2c(c(OC)c1OC)C1=C(C=C(O)C(=O)CC1)CO[C@@H]2C
IC50 (NALM-6 [2]): 1000 nM
IC50 (BJAB [3]): 1000 nM

COc1cc2c(c(OC)c1OC)-c1ccc(OC)c(=O)cc1C(=O)CC2
IC50 (Tubulin): 1100 nM

COc1cc2c(c(OC)c1OC)-c1ccc(OC)c(=O)cc1[C@@H](NC(C)=O)CC2 [COLCHICINE]
IC50 (BXPC-3): 42 nM
IC50 (A549 [4]): 42 nM
IC50 (PC-3): 42 nM
IC50 [5]: 540 nM
IC50 [6]: 42 nM
IC50 (HT-29): 42 nM
IC50 (HEK293): 42 nM
IC50 (P388 [7]): 29 nM
IC50 [8]: 42 nM
IC50 (MIA PaCa-2): 42 nM
IC50 (HeLa): 58 nM
IC50 [1]: 3900 nM
IC50 (KB 3-1): 9 nM

C=C1Cc2cc(OC)c(OC)c(OC)c2-c2ccc(OC)c(=O)cc21
Activity (NALM-6 [9]): 71%
Activity (MCF7): 62%
Activity (BJAB [10]): 48%

COc1ccc2c(c1)[C@@H](NC(C)=O)CCc1cc(OC)c(OC)c(OC)c1-2
IC50 (DU-145): 780 nM
IC50 [11]: 300 nM
IC50 (PANC-1 [12]): 80 nM

C=C1COc2cc3c(cc21)-c1c(cc(OC)c(OC)c1OC)CC[C@@H]3NC(=O)COC(=O)Cc1nc(CCCCCCCCCC(=O)OC(COC(=O)CCCCCCCCCCCCCCC)COP(=O)([O-])OCC[N+](C)(C)C)n[nH]1 (stereo partly drawn)
IC50 (HaCaT): 400 nM
IC50 (PANC-1 [13]): 400 nM

CC(C)CCC[C@@H](C)[C@H]1CC[C@H]2[C@@H]3CC=C4C[C@@H](OC(=O)NCCC(=O)NCCC(=O)N[C@@H](CCC(=O)O)C(=O)N[C@@H](CCC(=O)O)C(=O)NCCOCCOCCOCCC(=O)NCCOCCOCCOCCC(=O)NC(C)(C)C(=O)NC(C)(C)C(=O)NC(C)(C)C(=O)NC(C)(C)C(=O)N[C@@H](Cc5c[nH]c6ccccc56)C(=O)N[C@@H](Cc5ccc(O)cc5)C(=O)N[C@@H](C)C(=O)N[C@@H](Cc5c[nH]c6ccccc56)C(=O)N[C@@H](Cc5ccc(O)cc5)C(=O)N[C@@H](C)C(=O)N[C@@H](Cc5c[nH]c6ccccc56)C(=O)N[C@@H](Cc5ccc(O)cc5)C(=O)N5CCC[C@H]5C(=O)N5CCC[C@H]5C(=O)N[C@H](C(=O)N[C@H](C(N)=O)C(C)C)C(C)C)CC[C@]4(C)[C@H]3CC[C@]12C ({Cholesteryloxycarbonyl-βAla-βAla}-EE[PEG3][PEG3][Aib][Aib][Aib][Aib]WYAWYAWYPPVV-NH2)
IC50 (SK-BR-3 [14]): 0.11 nM
IC50 (SK-BR-3 [15]): > 10000 nM

COC(=O)c1ccc2c(c1)[C@@H](NC(=O)CO)CCc1cc(OC)c(OC)c(OC)c1-2
IC50 (HaCaT): 16 nM
IC50 (PANC-1 [13]): 80 nM

C=C1COc2cc3c(cc21)-c1c(cc(OC)c(OC)c1OC)CC[C@@H]3NC(=O)CO
IC50 (HaCaT): 3 nM
IC50 (PANC-1 [13]): 16 nM

CSc1ccc2c(cc1=O)[C@@H](NC(C)=O)CCc1cc(O)c(O)c(O)c1-2
IC50 [16]: 9000 nM

COc1cc2c(c(OC)c1OC)-c1ccc(OC)c(=O)cc1[C@@H](NC(=O)CN(OC)C1C[C@@H](O)[C@@H](O)[C@@H](CO)O1)CC2 (stereo partly drawn)
IC50 (HCT-116 [17]): 300 nM
IC50 (HCT-116 [18]): 300 nM
IC50 (SF-268 [19]): 300 nM
IC50 (SF-268 [20]): 300 nM

COc1cc2c(c(OC)c1OC)-c1ccc(OC)c(=O)cc1[C@@H](n1cc(CCC(=O)Cc3ccc4oc(=O)ccc4c3)nn1)CC2
IC50 (BJAB [21]): 60 nM

COc1cc2c(c(OC)c1OC)-c1ccc(Nc3ccc(Cl)c(C(F)(F)F)c3)c(=O)cc1[C@@H](NC(C)=O)CC2
IC50 (BXPC-3): 35 nM
IC50 (A549 [4]): 35 nM
IC50 (PC-3): 35 nM
IC50 [6]: 35 nM
IC50 (HT-29): 35 nM
IC50 (HEK293): 35 nM
IC50 [8]: 35 nM
IC50 (MIA PaCa-2): 35 nM

CCCCCCCCCCCC(=O)OCc1cn([C@H]2CCc3cc(OC)c(OC)c(OC)c3-c3ccc(OC)c(=O)cc32)nn1
IC50 (BJAB [21]): 4 nM

COc1cc2c(c(OC)c1OC)-c1ccc(SC)c(=O)cc1[C@@H](CO)C2
IC50 (A549 [22]): 240 nM
IC50 (KB): 144 nM
IC50 (HCT-8): 160 nM
IC50 (TE-671): 1320 nM
IC50 [23]: 3600 nM
IC50 (P388 [24]): 144 nM
IC50 (RPMI-7951): 134 nM
